Source: ChEMBL document CHEMBL1201862, “PubChem BioAssay data set” (2004)
Each block holds one molecule with its values, some of them ahead of it. Active and inactive are the calls of the source. Cut-off read from the data, not from the text of the source, for most assays here: actives have a measured IC50 and inactives only a lower limit.

Experiments:
Tumor necrosis factor [1] = target: T1, Tumor necrosis factor (Homo sapiens, UniProt P01375); test: analog potency on TNFa NF-kB signaling – cell-based, revised, SAR follow-up (AID 2337); type: functional
T1 sequence (P01375 whole entry, the tested form may be a part): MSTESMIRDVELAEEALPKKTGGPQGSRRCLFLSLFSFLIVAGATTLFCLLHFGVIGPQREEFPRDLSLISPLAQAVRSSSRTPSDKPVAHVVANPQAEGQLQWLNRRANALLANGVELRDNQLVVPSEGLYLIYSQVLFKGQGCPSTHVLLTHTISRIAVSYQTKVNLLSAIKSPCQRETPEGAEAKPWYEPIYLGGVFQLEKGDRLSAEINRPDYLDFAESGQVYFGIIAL

[2] = target: T2, Nucleotide-binding oligomerization domain-containing protein 1 (Homo sapiens, UniProt Q9Y239); test: blockers of NOD1 pathway activity – revised, SAR follow-up (AID 2333); type: functional
T2 sequence (Q9Y239 whole entry): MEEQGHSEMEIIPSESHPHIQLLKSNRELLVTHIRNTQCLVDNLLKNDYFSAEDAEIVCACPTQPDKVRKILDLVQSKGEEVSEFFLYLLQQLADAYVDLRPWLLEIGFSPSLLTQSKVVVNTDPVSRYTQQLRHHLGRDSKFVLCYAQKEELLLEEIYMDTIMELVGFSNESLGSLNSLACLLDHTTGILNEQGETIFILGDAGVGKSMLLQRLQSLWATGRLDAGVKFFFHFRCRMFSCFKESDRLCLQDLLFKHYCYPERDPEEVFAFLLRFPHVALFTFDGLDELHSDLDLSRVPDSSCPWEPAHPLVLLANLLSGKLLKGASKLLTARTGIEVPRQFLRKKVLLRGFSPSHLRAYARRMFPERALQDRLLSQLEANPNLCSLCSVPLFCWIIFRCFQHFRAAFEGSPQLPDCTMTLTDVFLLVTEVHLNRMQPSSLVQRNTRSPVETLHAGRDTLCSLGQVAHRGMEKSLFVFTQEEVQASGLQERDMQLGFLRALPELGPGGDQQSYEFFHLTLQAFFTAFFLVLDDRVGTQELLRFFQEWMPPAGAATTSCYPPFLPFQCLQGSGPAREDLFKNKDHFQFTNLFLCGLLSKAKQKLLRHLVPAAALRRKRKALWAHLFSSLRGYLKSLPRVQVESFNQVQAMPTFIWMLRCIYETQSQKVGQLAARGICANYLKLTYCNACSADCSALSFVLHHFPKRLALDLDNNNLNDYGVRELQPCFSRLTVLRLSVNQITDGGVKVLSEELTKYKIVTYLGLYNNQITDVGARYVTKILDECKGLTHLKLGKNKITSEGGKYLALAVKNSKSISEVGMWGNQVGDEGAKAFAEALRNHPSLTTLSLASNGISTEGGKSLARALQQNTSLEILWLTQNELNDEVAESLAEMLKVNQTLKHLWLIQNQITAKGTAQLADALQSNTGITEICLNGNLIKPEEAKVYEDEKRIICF

HEK293 [3] = test: cells; conditions: Homo sapiens
[4] = target: T3, Mannose-6-phosphate isomerase (Homo sapiens, UniProt P34949); test: MPI enzyme activity inhibition – biochemical, fluorescence intensity, coupled assay, primary screen (AID 1209)
T3 sequence (P34949 whole entry): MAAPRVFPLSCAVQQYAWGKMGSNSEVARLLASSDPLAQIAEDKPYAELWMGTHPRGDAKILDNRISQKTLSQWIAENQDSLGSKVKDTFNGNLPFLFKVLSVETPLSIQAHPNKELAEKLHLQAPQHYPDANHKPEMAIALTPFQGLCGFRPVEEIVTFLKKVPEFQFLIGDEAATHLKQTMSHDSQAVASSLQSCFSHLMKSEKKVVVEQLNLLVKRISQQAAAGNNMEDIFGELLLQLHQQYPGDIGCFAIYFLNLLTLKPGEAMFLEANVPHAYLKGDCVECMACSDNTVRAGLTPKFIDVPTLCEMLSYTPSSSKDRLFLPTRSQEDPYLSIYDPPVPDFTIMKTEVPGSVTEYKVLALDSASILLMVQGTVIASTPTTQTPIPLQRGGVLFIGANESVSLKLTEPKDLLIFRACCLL

[5] = target: T3, Mannose-6-phosphate isomerase; test: phosphomannose isomerase inhibition – biochemical, fluorescence intensity, confirmation (AID 1535)
Phosphomannomutase 2 = Phosphomannomutase 2 (Homo sapiens, UniProt O15305); test: Counter screen SAR assay for PMM2 inhibitors via a fluorescence intensity assay. [Related pubchem assays (depositor defined):AID1545, AID1574]
Sequence of Phosphomannomutase 2 (O15305 whole entry, the tested form may be a part): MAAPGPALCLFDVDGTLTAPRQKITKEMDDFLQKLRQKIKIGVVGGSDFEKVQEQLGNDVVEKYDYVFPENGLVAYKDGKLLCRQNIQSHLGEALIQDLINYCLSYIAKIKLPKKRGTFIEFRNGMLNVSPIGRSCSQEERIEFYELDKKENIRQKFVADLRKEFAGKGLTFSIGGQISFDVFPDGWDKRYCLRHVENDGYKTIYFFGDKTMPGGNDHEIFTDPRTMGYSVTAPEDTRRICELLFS

[6] = target: T2, Nucleotide-binding oligomerization domain-containing protein 1; test: SAR analysis of compounds that inhibit NOD1 - Set 3. [Related pubchem assays (depositor defined):AID1566, AID1575, AID1578, AID1849, AID1852, AID2333, AID2335, AID2466]; type: functional
Tumor necrosis factor [7] = target: T1, Tumor necrosis factor; test: analog potency on TNFa NF-kB signaling – cell-based, set 3, SAR follow-up (AID 2801); type: functional
HEK293 [8] = test: SAR analysis of compounds that are cytotoxic to HEK293 - Set 3. [Related pubchem assays (depositor defined):AID1575, AID1578, AID1848, AID1849, AID2001, AID2333, AID2334, AID2335, AID2337, AID2469]; type: functional, cell-based; conditions: Homo sapiens
[9] = target: Nucleotide-binding oligomerization domain-containing protein 2 (Homo sapiens, UniProt Q9HC29); test: inhibition of MDP-driven NOD2 NF-kB reporter – cell-based, set 3, SAR follow-up (AID 2799); type: functional
Sequence of Nucleotide-binding oligomerization domain-containing protein 2 (Q9HC29 whole entry, the tested form may be a part): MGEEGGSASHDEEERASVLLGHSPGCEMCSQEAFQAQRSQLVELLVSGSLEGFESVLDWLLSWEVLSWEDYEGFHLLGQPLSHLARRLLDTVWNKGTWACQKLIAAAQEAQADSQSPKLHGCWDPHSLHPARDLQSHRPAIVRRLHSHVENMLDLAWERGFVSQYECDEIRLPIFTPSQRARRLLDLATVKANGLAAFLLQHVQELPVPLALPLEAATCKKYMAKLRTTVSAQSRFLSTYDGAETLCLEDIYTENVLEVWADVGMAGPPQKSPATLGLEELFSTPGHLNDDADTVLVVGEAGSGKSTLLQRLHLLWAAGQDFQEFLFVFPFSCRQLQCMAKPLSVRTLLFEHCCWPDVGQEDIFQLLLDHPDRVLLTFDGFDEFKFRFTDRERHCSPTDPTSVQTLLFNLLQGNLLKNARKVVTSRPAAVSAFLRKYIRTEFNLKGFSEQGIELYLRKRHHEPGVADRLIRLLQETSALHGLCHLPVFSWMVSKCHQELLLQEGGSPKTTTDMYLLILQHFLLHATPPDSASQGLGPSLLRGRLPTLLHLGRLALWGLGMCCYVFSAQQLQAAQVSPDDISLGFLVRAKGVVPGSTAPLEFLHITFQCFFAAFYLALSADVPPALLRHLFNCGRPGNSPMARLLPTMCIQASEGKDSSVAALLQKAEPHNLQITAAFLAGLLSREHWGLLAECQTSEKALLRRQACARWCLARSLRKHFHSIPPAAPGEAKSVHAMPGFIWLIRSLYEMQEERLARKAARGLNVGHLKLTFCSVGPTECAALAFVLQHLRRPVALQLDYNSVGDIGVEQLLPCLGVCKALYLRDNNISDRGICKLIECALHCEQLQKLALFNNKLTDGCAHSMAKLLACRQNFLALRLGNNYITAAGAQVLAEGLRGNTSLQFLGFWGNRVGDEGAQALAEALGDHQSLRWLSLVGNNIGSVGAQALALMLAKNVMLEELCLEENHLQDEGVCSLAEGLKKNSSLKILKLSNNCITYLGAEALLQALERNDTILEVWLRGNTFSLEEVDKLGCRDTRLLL

SMILES: COC(=O)CC1=NN(c2ccccc2)C(=O)/C1=C/Nc1ccc(C)cc1
IC50 (Tumor necrosis factor [1]): > 20 µM (inactive)
IC50 [2]: > 20 µM (inactive)
IC50 (HEK293 [3]): > 20 µM (inactive)

SMILES: COc1ccc(NC(=O)c2ccc(CN3CCc4ccccc4C3)cc2)cc1
IC50 (Tumor necrosis factor [1]): 0.65 µM (active)
IC50 [2]: 0.513 µM (active)
IC50 (HEK293 [3]): > 20 µM (inactive)

IC50 [4]: 16 µM (active)
IC50 [5]: 36.9 µM (active)
IC50 (Phosphomannomutase 2): > 100 µM (inactive)
SMILES: N#CC1=C2SCN(Cc3ccccc3)CN2C(=O)CC1c1ccc2c(c1)OCO2 (stereo not drawn)

SMILES: Nc1cc(-c2ccccc2)nn1S(=O)(=O)c1ccc(F)c(Cl)c1
IC50 [6]: > 20 µM (inactive)
IC50 (Tumor necrosis factor [7]): > 20 µM (inactive)
IC50 (HEK293 [8]): > 20 µM (inactive)
IC50 [9]: > 20 µM (inactive)
